Measurements reported in ChEMBL document CHEMBL3885861, “Open TG-GATES”.

Species: Rattus norvegicus
Assay: Open TG-GATES - Regimen: Single
Format: toxicity, organism-based, Sprague-Dawley
Set-up: regimen Single, gender Male, age 6 weeks
Settings: in vivo, ip, 0.03 mg/kg, route intraperitoneal injection, dose 30 ug/Kg, dose level Low; for APTT / Bas / Eos / Fbg / Hb / Ht / Lym / MCH / MCHC / MCV / Mono / Neu / PT / Plat / RBC / Ret / WBC: tissue Blood; for KIDNEY_L / KIDNEY_R / KIDNEY_TOTAL: tissue Kidney; for LIVER: tissue Liver; for A/G / ALP / ALT / AST / BUN / CRE / Ca / Cl / DBIL / GLC / IP / K / LDH / Na / PL / RALB / TBIL / TC / TG / TP / gamma-GTP: tissue Plasma

Work on `CC(=O)N[C@H]1[C@@H](O[C@@H]2O[C@H](CC(O)[C@H]3O[C@@H](n4ccc(=O)[nH]c4=O)[C@H](O)[C@@H]3O)[C@H](O)[C@H](O)[C@H]2NC(=O)/C=C/CC(C)C)O[C@H](CO)[C@@H](N)[C@@H]1O` (some centres not stated) [TUNICAMYCIN] yielded a TERMINAL_BW (3 h) of 222.8 g, an APTT (3 h) of 22.4 s and a Bas (3 h) of 0%. For the same molecule, the Eos (3 h) was 0.6%, the Fbg (3 h) was 302.4 mg/dL and the Hb (3 h) was 13 g/dL. It also gave a Ht (3 h) of 39.3%, a Lym (3 h) of 81% and an MCH (3 h) of 20.5 pg. The MCHC (3 h) was 33%, the MCV (3 h) was 62.1 fL and the Mono (3 h) was 3%. The Neu (3 h) was 14.4%, the PT (3 h) was 15.7 s and the Plat (3 h) was 115.4 x10_4/uL. It also gave an RBC (3 h) of 633.2 x10_4/ul, a Ret (3 h) of 8.1% and a WBC (3 h) of 99.9 x10_2/uL. For the same molecule, the KIDNEY_L (3 h) was 1 g, the KIDNEY_R (3 h) was 1 g and the KIDNEY_TOTAL (3 h) was 2 g. For the same molecule, the LIVER (3 h) was 10.4 g, the A/G (3 h) was 1.2 and the ALP (3 h) was 1404.2 IU/L. The ALT (3 h) was 37.6 IU/L, the AST (3 h) was 69.6 IU/L and the BUN (3 h) was 15.4 mg/dL. The CRE (3 h) was 0.2 mg/dL, the Ca (3 h) was 10.8 mg/dL and the Cl (3 h) was 106 meq/L. It also gave a DBIL (3 h) of 0 mg/dL, a GLC (3 h) of 173.4 mg/dL and an IP (3 h) of 7.5 mg/dL. It also gave a K (3 h) of 4.5 meq/L, an LDH (3 h) of 151.2 IU/L and a Na (3 h) of 140.8 meq/L. It also gave a PL (3 h) of 126 mg/dL, an RALB (3 h) of 2.9 g/dL and a TBIL (3 h) of 0.01 mg/dL. For the same molecule, the TC (3 h) was 71.8 mg/dL, the TG (3 h) was 78.6 mg/dL and the TP (3 h) was 5.4 g/dL. The gamma-GTP (3 h) was 1.4 IU/L, the TERMINAL_BW (6 h) was 219.6 g and the APTT (6 h) was 21.8 s. For the same molecule, the Bas (6 h) was 0%, the Eos (6 h) was 0.4% and the Fbg (6 h) was 295 mg/dL. For the same molecule, the Hb (6 h) was 13.2 g/dL, the Ht (6 h) was 39.8% and the Lym (6 h) was 77.8%. The MCH (6 h) was 20.9 pg, the MCHC (6 h) was 33% and the MCV (6 h) was 63.3 fL. For the same molecule, the Mono (6 h) was 2%, the Neu (6 h) was 18.6% and the PT (6 h) was 15.6 s. For the same molecule, the Plat (6 h) was 114.3 x10_4/uL, the RBC (6 h) was 629.2 x10_4/ul and the Ret (6 h) was 7.1%. For the same molecule, the WBC (6 h) was 90.7 x10_2/uL, the KIDNEY_L (6 h) was 1 g and the KIDNEY_R (6 h) was 1 g. The KIDNEY_TOTAL (6 h) was 2 g, the LIVER (6 h) was 9.8 g and the A/G (6 h) was 1.2. It also gave an ALP (6 h) of 1356.2 IU/L, an ALT (6 h) of 42.6 IU/L and an AST (6 h) of 74.6 IU/L. For the same molecule, the BUN (6 h) was 12.6 mg/dL, the CRE (6 h) was 0.2 mg/dL and the Ca (6 h) was 10.8 mg/dL. The Cl (6 h) was 105.2 meq/L, the DBIL (6 h) was 0 mg/dL and the GLC (6 h) was 168.2 mg/dL. The IP (6 h) was 8.9 mg/dL, the K (6 h) was 4.4 meq/L and the LDH (6 h) was 157.8 IU/L. The Na (6 h) was 141.2 meq/L, the PL (6 h) was 120.6 mg/dL and the RALB (6 h) was 2.9 g/dL. For the same molecule, the TBIL (6 h) was 0.018 mg/dL, the TC (6 h) was 69.2 mg/dL and the TG (6 h) was 57.6 mg/dL. The TP (6 h) was 5.3 g/dL, the gamma-GTP (6 h) was 1.2 IU/L and the TERMINAL_BW (9 h) was 213.3 g. The APTT (9 h) was 23.6 s, the Bas (9 h) was 0% and the Eos (9 h) was 0.6%. It also gave a Fbg (9 h) of 315.4 mg/dL, a Hb (9 h) of 13.5 g/dL and a Ht (9 h) of 41%. It also gave a Lym (9 h) of 83.8%, an MCH (9 h) of 21 pg and an MCHC (9 h) of 32.9%. The MCV (9 h) was 63.8 fL, the Mono (9 h) was 2% and the Neu (9 h) was 12.8%. For the same molecule, the PT (9 h) was 15.8 s, the Plat (9 h) was 112.5 x10_4/uL and the RBC (9 h) was 643.2 x10_4/ul. The Ret (9 h) was 7.5%, the WBC (9 h) was 85.7 x10_2/uL and the KIDNEY_L (9 h) was 0.9 g. The KIDNEY_R (9 h) was 1 g, the KIDNEY_TOTAL (9 h) was 1.9 g and the LIVER (9 h) was 8.9 g. It also gave an A/G (9 h) of 1.2, an ALP (9 h) of 1454.8 IU/L and an ALT (9 h) of 36.4 IU/L. The AST (9 h) was 71.2 IU/L, the BUN (9 h) was 12.8 mg/dL and the CRE (9 h) was 0.1 mg/dL. The Ca (9 h) was 10.8 mg/dL, the Cl (9 h) was 106 meq/L and the DBIL (9 h) was 0 mg/dL. The GLC (9 h) was 181 mg/dL, the IP (9 h) was 9.3 mg/dL and the K (9 h) was 4.4 meq/L. It also gave an LDH (9 h) of 174 IU/L, a Na (9 h) of 142.2 meq/L and a PL (9 h) of 129 mg/dL. For the same molecule, the RALB (9 h) was 3 g/dL, the TBIL (9 h) was 0.01 mg/dL and the TC (9 h) was 75.4 mg/dL. The TG (9 h) was 70.4 mg/dL, the TP (9 h) was 5.5 g/dL and the gamma-GTP (9 h) was 1 IU/L. It also gave a TERMINAL_BW (24 h) of 234.5 g, an APTT (24 h) of 21.3 s and a Bas (24 h) of 0%. For the same molecule, the Eos (24 h) was 0.8%, the Fbg (24 h) was 308.6 mg/dL and the Hb (24 h) was 12.8 g/dL. It also gave a Ht (24 h) of 39.3%, a Lym (24 h) of 82% and an MCH (24 h) of 20.1 pg. For the same molecule, the MCHC (24 h) was 32.5%, the MCV (24 h) was 61.6 fL and the Mono (24 h) was 2.6%. It also gave a Neu (24 h) of 13.4%, a PT (24 h) of 15.7 s and a Plat (24 h) of 114.8 x10_4/uL. The RBC (24 h) was 637.8 x10_4/ul, the Ret (24 h) was 7.4% and the WBC (24 h) was 75.9 x10_2/uL. The KIDNEY_L (24 h) was 1 g, the KIDNEY_R (24 h) was 1.1 g and the KIDNEY_TOTAL (24 h) was 2.1 g. It also gave an LIVER (24 h) of 11.1 g, an A/G (24 h) of 1.2 and an ALP (24 h) of 1690.8 IU/L. The ALT (24 h) was 40.4 IU/L, the AST (24 h) was 67.8 IU/L and the BUN (24 h) was 16.6 mg/dL. It also gave a CRE (24 h) of 0.1 mg/dL, a Ca (24 h) of 10.4 mg/dL and a Cl (24 h) of 105.6 meq/L. The DBIL (24 h) was 0 mg/dL, the GLC (24 h) was 183.4 mg/dL and the IP (24 h) was 7.3 mg/dL. For the same molecule, the K (24 h) was 4.6 meq/L, the LDH (24 h) was 148 IU/L and the Na (24 h) was 141.2 meq/L. For the same molecule, the PL (24 h) was 141.6 mg/dL, the RALB (24 h) was 3 g/dL and the TBIL (24 h) was 0.006 mg/dL. For the same molecule, the TC (24 h) was 76.4 mg/dL, the TG (24 h) was 98.6 mg/dL and the TP (24 h) was 5.6 g/dL. For the same molecule, the gamma-GTP (24 h) was 1.4 IU/L.
